These are literature values, as cited in patent publication US20030064108A1, “TASTE MASKED PHARMACEUTICAL COMPOSITIONS” (priority 1996, published 2003).

For this series the following is noted: 1 g every 6 hours, repeated administration.

Turning to `CC(=O)Nc1ccc(O)cc1` [paracetamol], the mean maximum concentration result is reported as “about 12 mg/L” and the “mean trough plasma concentration (immediately pre-dose)” value was 3 mg/L.
